How the values were obtained:
PIK3CG (human) = PIK3CG (human) (UniProt P48736); experiment: Enzyme Assay
PIK3CB (Human) = PIK3CB (Human) (UniProt P42338); experiment: Enzyme Assay
PIK3CD (Human) [1] = target: PIK3CD (Human) (UniProt O00329); experiment: Enzyme Assay
PIK3CD (Human) [2] = target: PIK3CD (Human) (UniProt O00329); experiment: Cell-Based Assay; conditions: b cells
PIK3CA (human) = PIK3CA (human) (UniProt P42336); experiment: Enzyme Assay
PIK3CA (human), sequence (P42336 whole entry, looked up): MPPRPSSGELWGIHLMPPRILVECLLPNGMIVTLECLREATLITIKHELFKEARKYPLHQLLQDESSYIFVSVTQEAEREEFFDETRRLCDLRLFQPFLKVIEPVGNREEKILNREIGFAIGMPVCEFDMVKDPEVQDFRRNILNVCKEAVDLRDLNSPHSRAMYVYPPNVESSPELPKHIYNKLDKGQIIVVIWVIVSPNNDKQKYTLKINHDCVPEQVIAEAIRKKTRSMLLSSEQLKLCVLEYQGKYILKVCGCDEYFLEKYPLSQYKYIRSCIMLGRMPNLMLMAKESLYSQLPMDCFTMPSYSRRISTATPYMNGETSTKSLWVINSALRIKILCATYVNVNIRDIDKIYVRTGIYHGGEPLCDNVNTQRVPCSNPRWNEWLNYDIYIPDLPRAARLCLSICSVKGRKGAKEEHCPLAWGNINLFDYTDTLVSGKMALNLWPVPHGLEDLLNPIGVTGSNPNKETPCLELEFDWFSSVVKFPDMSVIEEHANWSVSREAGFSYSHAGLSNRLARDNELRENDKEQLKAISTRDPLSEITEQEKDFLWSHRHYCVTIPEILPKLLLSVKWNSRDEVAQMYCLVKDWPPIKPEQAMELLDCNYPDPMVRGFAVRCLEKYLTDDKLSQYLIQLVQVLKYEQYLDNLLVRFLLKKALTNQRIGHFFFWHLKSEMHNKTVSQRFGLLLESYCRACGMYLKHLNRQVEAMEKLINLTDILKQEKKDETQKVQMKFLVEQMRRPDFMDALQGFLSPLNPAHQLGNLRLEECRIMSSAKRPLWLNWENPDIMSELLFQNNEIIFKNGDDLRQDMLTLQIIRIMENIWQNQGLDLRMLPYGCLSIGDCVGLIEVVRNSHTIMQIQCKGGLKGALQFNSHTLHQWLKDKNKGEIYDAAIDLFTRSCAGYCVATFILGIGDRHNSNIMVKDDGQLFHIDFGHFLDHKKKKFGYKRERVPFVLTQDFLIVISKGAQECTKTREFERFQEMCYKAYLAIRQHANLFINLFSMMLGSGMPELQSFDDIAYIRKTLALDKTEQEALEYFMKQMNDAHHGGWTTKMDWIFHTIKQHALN

PIK3CG (human), sequence (P48736 whole entry, looked up): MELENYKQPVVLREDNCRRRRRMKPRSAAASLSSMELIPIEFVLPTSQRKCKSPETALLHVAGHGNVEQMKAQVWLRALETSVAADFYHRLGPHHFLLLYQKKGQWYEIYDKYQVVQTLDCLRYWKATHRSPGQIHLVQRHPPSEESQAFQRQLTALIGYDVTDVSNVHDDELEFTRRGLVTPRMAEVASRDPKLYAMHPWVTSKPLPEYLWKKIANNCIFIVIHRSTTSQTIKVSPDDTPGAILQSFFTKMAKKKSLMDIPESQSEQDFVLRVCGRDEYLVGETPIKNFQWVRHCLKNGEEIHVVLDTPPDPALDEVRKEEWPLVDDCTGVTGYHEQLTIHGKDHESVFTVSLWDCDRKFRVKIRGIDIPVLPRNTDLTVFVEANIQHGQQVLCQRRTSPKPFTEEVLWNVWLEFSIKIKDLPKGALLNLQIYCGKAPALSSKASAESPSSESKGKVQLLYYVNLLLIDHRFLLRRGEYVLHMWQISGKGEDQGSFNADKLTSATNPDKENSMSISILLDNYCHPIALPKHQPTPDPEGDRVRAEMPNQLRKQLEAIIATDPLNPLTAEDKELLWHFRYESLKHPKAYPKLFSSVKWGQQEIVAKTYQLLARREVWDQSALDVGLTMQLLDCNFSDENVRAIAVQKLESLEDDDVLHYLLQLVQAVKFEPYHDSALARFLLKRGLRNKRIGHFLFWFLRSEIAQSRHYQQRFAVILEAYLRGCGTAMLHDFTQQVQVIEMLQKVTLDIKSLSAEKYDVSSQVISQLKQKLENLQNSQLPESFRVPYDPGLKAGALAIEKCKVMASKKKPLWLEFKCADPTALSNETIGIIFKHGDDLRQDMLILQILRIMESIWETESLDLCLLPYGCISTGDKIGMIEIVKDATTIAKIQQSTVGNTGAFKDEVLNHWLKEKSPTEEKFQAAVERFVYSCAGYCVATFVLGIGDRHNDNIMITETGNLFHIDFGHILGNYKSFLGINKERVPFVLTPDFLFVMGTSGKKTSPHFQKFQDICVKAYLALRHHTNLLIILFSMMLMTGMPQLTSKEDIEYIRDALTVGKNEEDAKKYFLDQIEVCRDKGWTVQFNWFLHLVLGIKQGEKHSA
PIK3CD (Human), sequence (O00329 whole entry, looked up): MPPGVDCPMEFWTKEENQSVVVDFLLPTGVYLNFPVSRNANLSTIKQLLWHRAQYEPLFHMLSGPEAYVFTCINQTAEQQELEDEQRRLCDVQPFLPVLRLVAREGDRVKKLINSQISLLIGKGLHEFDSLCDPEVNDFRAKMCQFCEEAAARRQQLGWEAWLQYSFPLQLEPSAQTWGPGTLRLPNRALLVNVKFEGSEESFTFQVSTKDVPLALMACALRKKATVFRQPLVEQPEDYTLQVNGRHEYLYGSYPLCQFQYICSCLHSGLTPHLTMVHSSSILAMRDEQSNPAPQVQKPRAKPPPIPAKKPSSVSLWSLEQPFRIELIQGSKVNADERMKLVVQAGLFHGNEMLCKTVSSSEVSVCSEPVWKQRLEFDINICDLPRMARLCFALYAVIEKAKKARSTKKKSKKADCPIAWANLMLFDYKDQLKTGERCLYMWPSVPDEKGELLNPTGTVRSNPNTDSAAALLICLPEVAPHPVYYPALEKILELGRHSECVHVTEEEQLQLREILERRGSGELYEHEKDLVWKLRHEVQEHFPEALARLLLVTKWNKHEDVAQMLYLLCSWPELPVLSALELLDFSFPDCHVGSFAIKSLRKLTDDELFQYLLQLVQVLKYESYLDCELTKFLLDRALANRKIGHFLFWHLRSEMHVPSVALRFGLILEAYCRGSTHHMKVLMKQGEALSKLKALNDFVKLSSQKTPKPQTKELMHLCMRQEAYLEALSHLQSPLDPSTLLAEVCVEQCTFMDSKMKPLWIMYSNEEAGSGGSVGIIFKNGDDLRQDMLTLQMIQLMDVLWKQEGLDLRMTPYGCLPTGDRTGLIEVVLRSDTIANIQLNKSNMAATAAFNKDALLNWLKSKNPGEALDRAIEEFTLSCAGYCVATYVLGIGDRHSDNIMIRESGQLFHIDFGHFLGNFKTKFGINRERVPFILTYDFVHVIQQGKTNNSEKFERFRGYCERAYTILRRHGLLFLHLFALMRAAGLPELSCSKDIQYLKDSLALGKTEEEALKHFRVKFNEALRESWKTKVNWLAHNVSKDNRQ
PIK3CB (Human), sequence (P42338 whole entry, looked up): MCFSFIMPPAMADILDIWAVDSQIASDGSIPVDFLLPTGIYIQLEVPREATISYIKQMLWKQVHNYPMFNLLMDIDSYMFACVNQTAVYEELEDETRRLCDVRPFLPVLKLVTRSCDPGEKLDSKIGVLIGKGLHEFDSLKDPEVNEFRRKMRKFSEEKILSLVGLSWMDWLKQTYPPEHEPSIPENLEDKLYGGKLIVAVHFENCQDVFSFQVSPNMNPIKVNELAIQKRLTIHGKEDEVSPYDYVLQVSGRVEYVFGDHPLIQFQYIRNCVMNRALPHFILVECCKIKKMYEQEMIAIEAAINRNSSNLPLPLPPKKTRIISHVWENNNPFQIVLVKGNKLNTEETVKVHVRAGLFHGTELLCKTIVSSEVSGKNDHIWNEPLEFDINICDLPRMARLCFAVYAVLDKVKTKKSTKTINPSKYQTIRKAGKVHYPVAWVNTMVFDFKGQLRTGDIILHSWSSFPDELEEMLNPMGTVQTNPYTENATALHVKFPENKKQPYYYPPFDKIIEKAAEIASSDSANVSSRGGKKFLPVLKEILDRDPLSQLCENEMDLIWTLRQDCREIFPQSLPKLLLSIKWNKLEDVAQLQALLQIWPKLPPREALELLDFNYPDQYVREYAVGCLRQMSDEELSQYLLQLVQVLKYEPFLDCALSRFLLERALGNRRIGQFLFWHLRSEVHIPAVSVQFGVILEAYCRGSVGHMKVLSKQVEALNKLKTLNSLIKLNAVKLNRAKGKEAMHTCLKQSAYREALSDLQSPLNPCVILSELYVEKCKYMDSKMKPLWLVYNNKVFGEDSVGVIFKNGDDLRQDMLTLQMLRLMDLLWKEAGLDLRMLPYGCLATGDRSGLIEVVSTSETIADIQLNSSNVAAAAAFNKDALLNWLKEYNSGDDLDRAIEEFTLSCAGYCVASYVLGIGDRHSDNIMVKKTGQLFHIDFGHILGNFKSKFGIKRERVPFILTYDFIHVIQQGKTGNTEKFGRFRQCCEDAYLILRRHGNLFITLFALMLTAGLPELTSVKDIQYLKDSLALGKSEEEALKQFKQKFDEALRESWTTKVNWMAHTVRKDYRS

Row | Compound | IC50 (PIK3CG (human)) | IC50 (PIK3CB (Human)) | IC50 (PIK3CD (Human) [1]) | IC50 (PIK3CD (Human) [2]) | IC50 (PIK3CA (human))
1 | Cc1ncc(F)cc1-c1nc2c(Cl)cccc2cc1[C@H](C)Nc1ncnc2[nH]cnc12 | 230 nM | 1800 nM | 18 nM | 17 nM | 
2 | C[C@H](Nc1ncnc2[nH]cnc12)c1cc2ccc(F)cc2nc1-c1cccc(F)c1 | 120 nM | 1300 nM | 6.6 nM | 13 nM | 14000 nM
3 | Cc1ccccc1-n1c(CNc2nc(N)nc3[nH]cnc23)nc2cccc(C)c2c1=O | 140 nM | 1800 nM | 25 nM |  | 10000 nM
4 | Cc1ccccc1-c1nc2c(C)cccc2cc1[C@@H](C)Oc1ncnc2[nH]ccc12 | 22000 nM | 7600 nM | 2600 nM |  | > 125000 nM
5 | C[C@H](Nc1ncnc2[nH]cnc12)c1cc2cccc(Cl)c2nc1-c1ccccc1Cl | 140 nM | 1500 nM | 8 nM | 3.6 nM | 36000 nM
6 | C[C@H](Nc1ncnc2[nH]cnc12)c1cc2cccc(F)c2nc1-c1cc(F)cc(F)c1 | 360 nM | 4500 nM | 12 nM | 11 nM | 9000 nM
7 | C[C@H](Nc1ncnc2[nH]cnc12)c1cc2cccc(Cl)c2nc1-c1cccc(F)c1 | 38 nM | 370 nM | 12 nM | 2.4 nM | 5700 nM
8 | Cc1nnc2ccc(Cl)cc2c1N1CC(C)(C)c2ccc(N3CCOCC3)cc21 |  |  | 19000 nM |  | 
9 | Clc1ccccc1-c1nc2c(Cl)cccc2cc1CNc1ncnc2[nH]cnc12 | 450 nM | 3900 nM | 39 nM | 25 nM | 46000 nM
10 | C[C@H](Nc1ncnc2[nH]cnc12)c1cc2cccc(F)c2nc1-c1ccccn1 | 1700 nM | 2200 nM | 29 nM | 14 nM | 125000 nM
11 | C[C@H](Nc1ncnc2[nH]cnc12)c1cc2cccc(F)c2nc1-c1cccnc1 | 830 nM | 2900 nM | 16 nM | 15 nM | 81000 nM
12 | C[C@H](Nc1ncnc2[nH]cnc12)c1cc2cccc(C#N)c2nc1-c1ccccn1 | 1100 nM | 5200 nM | 43 nM | 47 nM | 62000 nM
13 | C[C@H](Nc1ncnc2[nH]cnc12)c1nc2cccc(Cl)c2nc1-c1ccccn1 | 440 nM | 1090 nM | 5.2 nM | 12 nM | 46000 nM
14 | Cc1ccccc1-c1nc2c(C)cccc2cc1CCc1ncnc2[nH]cnc12 | 18000 nM | > 12000 nM | 3600 nM |  | > 125000 nM
15 | C[C@H](Nc1ncnc2[nH]cnc12)c1cc2ccc(F)cc2nc1-c1ccccc1S(C)(=O)=O | 340 nM | 2100 nM | 11 nM | 6.8 nM | 20000 nM
16 | C[C@H](Nc1ncnc2[nH]cnc12)c1nc2cccc(Cl)c2nc1-c1cccc(F)c1 | 160 nM | 1400 nM | 10 nM | 14 nM | 8100 nM

Row | Compound | IC50 (PIK3CG (human)) | IC50 (PIK3CB (Human)) | IC50 (PIK3CD (Human) [1]) | IC50 (PIK3CD (Human) [2]) | IC50 (PIK3CA (human))
17 | C[C@H](Nc1ncnc2[nH]cnc12)c1cc2cccc(F)c2nc1-c1cccc(F)c1 | 250 nM | 1100 nM | 10 nM | 5.2 nM | 
18 | Cc1ccccc1-c1nc2c(C)cccc2cc1COc1ncnc2[nH]cnc12 | 580 nM | 1700 nM | 17 nM | 47 nM | 42000 nM
19 | Fc1cccc(-c2nc3c(Cl)cccc3cc2CNc2ncnc3[nH]cnc23)c1 | 840 nM | 3700 nM | 82 nM | 28 nM | 52000 nM
20 | Cc1ccccc1-c1nc2c(C)cccc2cc1CNc1ncnc2[nH]cnc12 | 290 nM | 2100 nM | 41 nM | 51 nM | 37000 nM
21 | C[C@H](Nc1ncnc2[nH]cnc12)c1cc2cccc(Cl)c2nc1-c1cccc(S(C)(=O)=O)c1 | 770 nM | 1100 nM | 15 nM | 56 nM | 47000 nM
22 | C[C@H](Nc1ncnc2[nH]cnc12)c1cc2cccc(Cl)c2nc1-c1ccccn1 | 150 nM | 670 nM | 66 nM | 3.2 nM | 14000 nM
23 | Cc1ccccc1-c1nc2c(C)cccc2cc1COc1ncnc2[nH]ccc12 | 710 nM | 3300 nM | 38 nM | 270 nM | > 125000 nM
24 | C[C@H](Nc1ncnc2[nH]cnc12)c1nc2ccc(F)cc2nc1-c1ccccn1 | 890 nM | 4100 nM | 24 nM | 18 nM | 22000 nM
25 | C[C@H](Nc1ncnc2[nH]cnc12)c1cc2c(F)cc(F)cc2nc1-c1ccccn1 | 610 nM | 1900 nM | 16 nM |  | 6900 nM
26 | Cc1ncccc1-c1nc2c(Cl)cccc2cc1[C@H](C)Nc1ncnc2[nH]cnc12 | 120 nM | 1260 nM | 18 nM | 4.3 nM | 13000 nM
27 | C[C@H](Nc1ncnc2[nH]cnc12)c1cc2cccc(F)c2nc1-c1cc(F)ccc1F | 560 nM | 1900 nM | 18 nM | 13 nM | 125000 nM
28 | COc1ccccc1-c1nc2c(C)cccc2cc1CSc1ncnc2[nH]cnc12 | 8600 nM | 49000 nM | 240 nM | 840 nM | 53000 nM
29 | C[C@H](Nc1ncnc2[nH]cnc12)c1cc2cccc(Cl)c2nc1-c1ccccc1F | 67 nM | 420 nM | 3.2 nM | 3.6 nM | 26000 nM
30 | Cc1ccccc1-c1nc2c(C)cccc2cc1[C@H](C)Oc1ncnc2[nH]ccc12 | 93 nM | 1000 nM | 7.1 nM | 4.3 nM | 6500 nM
31 | C[C@H](Nc1ncnc2[nH]cnc12)c1nc2c(Cl)cccc2nc1-c1ccccn1 | 6600 nM | 3600 nM | 59 nM | 21 nM | 125000 nM
32 | COc1ccccc1-c1nc2c(C)cccc2cc1COc1ncnc2[nH]cnc12 | 2600 nM | 2900 nM | 44 nM | 88 nM | > 125000 nM
